Experimental findings from patent publication US8318674B2, “Local treatment of bone defects” (Kuros Biosurgery AG, priority 2005, dated 2012) are described below.

Series [1] can be described thus: Stability of PTH or TGPTH in buffer (spiked samples, direct ELISA). In kind it is physicochemical. Particulars: 0.5 μg/mL, 37° C., distilled water, phosphate buffer saline, tris-buffer saline. The method, then: For the first release assay, a fibrin matrix of 50 μl with 0.1 mg PTH or TGPTH per ml fibrin matrix was incubated at 37° C. in 10 ml buffer. Therefore, the concentration of PTH or TGPTH in the buffer in case of a total release would be 0.5 μg PTH or TGPTH/mL fibrin matrix. In order to compare the stability of PTH or TGPTH during the assay, samples of PTH or TGPTH were diluted directly in the buffer to a concentration of 0.5 μg PTH or TGPTH/mL fibrin matrix. Different buffers were tested: distilled water, phosphate buffer saline, tris-buffer saline.
Aliquots were taken at days 0, 1, 2, 4 and 6 and analysed by direct ELISA. […] Therefore, no conclusion could be made on the release data. The PTH stability was certainly affected by its low concentration and the buffers that were not optimal.
The release experiment was repeated by using a stabilizing buffer containing 50 mM mannitol in a 10 mM sodium acetate buffer. In addition, the buffer was exchanged every 2 days in order to prevent any degradation of peptide. […] The concentration of PTH or TGPTH in the buffer in case of a total release would be 100 μg/mL fibrin matrix (200 times more than before). […] Samples were collected every 2 to 4 days (with a change of buffer) during 2 weeks and analysed by direct ELISA. […]
For orientation: An ELISA detects its analyte on a solid surface through an enzyme-linked reagent.

The target of series [2] is T1, parathyroid hormone receptor (Homo sapiens, UniProt Q03431).
T1 construct: endogenous in cells; transfected only with a luciferase reporter plasmid driven by the PTH receptor promoter
T1 sequence (Q03431 27-593): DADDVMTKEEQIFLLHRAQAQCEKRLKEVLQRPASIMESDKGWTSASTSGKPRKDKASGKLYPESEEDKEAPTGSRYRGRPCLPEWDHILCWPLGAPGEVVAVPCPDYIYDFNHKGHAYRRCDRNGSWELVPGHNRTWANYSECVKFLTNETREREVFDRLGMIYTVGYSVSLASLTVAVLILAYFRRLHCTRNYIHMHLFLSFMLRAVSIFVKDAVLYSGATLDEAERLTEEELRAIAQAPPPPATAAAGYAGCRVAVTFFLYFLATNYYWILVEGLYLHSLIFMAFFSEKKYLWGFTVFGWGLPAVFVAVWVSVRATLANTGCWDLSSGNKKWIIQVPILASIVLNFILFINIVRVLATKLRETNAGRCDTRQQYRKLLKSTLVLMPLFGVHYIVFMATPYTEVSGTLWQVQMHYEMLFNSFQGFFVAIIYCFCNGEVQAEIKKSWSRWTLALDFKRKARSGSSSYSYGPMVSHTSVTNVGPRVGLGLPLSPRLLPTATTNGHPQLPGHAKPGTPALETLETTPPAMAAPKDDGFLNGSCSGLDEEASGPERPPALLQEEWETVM
Nature of the series: Reporter gene assay for bioactivity of PTH fusion peptides. It is filed as cell-based. Particulars: luciferase reporter linked to PTH receptor promoter; equal amounts; compared to international 84 amino acid standard. The method, then:
Cells transfected with a reporter gene linked to a promoter for a PTH receptor were treated with equal amounts of either PTH1-34, TG-pl-PTH1-34 (described hereinafter) or the international 84 amino acid standard. The inhibition of expression of the luciferase reporter gene was measured and compared to transfected cells that were not exposed to PTH in solution (control).
To study the bioactivity of the PTH fusion peptides, a reporter gene assay was established. In this assay, a plasmid that contains luciferase reporter gene which is linked to the promoter for the parathyroid hormone receptor is transfected into cells. Then, if the cell is exposed to PTH and the PTH subsequently binds to its receptor on the cell, a signal cascade, directed through elevated cAMP levels, is initiated. Through a natural feedback regulation, this then leads to a reduction of PTH receptor levels. As the reduction is directed through the promoter, it also then leads to a decrease in production of the linked reporter gene. Using this assay, the activity of both native PTH1-34 as well as TG-pl-PTH1-34 were studied and compared to an international standard.

For the molecule `CC[C@H](C)[C@H](NC(=O)[C@H](CCC(=O)O)NC(=O)[C@H](CO)NC(=O)[C@@H](NC(=O)[C@@H](N)CO)C(C)C)C(=O)N[C@@H](CCC(N)=O)C(=O)N[C@@H](CC(C)C)C(=O)N[C@@H](CCSC)C(=O)N[C@@H](Cc1cnc[nH]1)C(=O)N[C@@H](CC(N)=O)C(=O)N[C@@H](CC(C)C)C(=O)NCC(=O)N[C@@H](CCCCN)C(=O)N[C@@H](Cc1cnc[nH]1)C(=O)N[C@@H](CC(C)C)C(=O)N[C@@H](CC(N)=O)C(=O)N[C@@H](CO)C(=O)N[C@@H](CCSC)C(=O)N[C@@H](CCC(=O)O)C(=O)N[C@@H](CCCN=C(N)N)C(=O)N[C@H](C(=O)N[C@@H](CCC(=O)O)C(=O)N[C@@H](Cc1c[nH]c2ccccc12)C(=O)N[C@@H](CC(C)C)C(=O)N[C@@H](CCCN=C(N)N)C(=O)N[C@@H](CCCCN)C(=O)N[C@@H](CCCCN)C(=O)N[C@@H](CC(C)C)C(=O)N[C@@H](CCC(N)=O)C(=O)N[C@@H](CC(=O)O)C(=O)N[C@H](C(=O)N[C@@H](Cc1cnc[nH]1)C(=O)N[C@@H](CC(N)=O)C(=O)N[C@@H](Cc1ccccc1)C(=O)O)C(C)C)C(C)C` [PTH1-34], the stability in buffer in series [1] is recorded as no more than 2 days.
In the case of “NQEQVSPLYKNRSVSEIQLMHNLGKHLNSMERVEWLRKKLQDVHNF [TG-pl-PTH1-34]”, the “level of activity (reduction in reporter gene expression)” value in series [2] is given as “the same as for the international standard”.
